# Laboratory results: PubChem BioAssay AID1963435 (Molecular Pharmacology Branch, DTP, NCI, 2024)
# Where “and” joins values, the source holds several entries; their conditions need not be identical. Identical values can stand only once.
# System: PANC-1 complex spheroid growth, percent test/control
# Assay: Anticancer human tumor PANC-1 cell line growth inhibition [Asc];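 further: spheroids exposed to agents for 7 days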;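 on viability, T/C: percent viability relative to DMSO vehicle wells taken as 100%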
# Settings: for viability, T/C: stronger effect = lower value
# Procedure, shortened: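 Tumor cells were grown as multicellular spheroids with stromal HUVEC and mesenchymal stem cells and treated singly or in combination. Concentrations fell in half-log steps from the clinical Cmax, or from 10 microM where none was known.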
compound,measurement,setting,value
COc1c(OCCCN2CCOCC2)ccc2c3n(c(=NC(=O)c4cnc(N)nc4)nc12)CCN3 + CCN1C(C(=O)NC23CCC(C(=O)O)(CC2)CC3)C(c2cccc(Cl)c2F)C2(C(=O)Nc3cc(Cl)ccc32)C12CCCCC2,IC50,"curve of first compound, second compound 0.00949 µM",315 nM
same,IC50,"curve of first compound, second compound 0.03 µM",423 nM
same,IC50,"curve of first compound, second compound 0.0949 µM",267 nM
same,IC50,"curve of first compound, second compound 0.3 µM",306 nM
same,IC50,"curve of first compound, second compound 0.949 µM",279 nM
same,IC50,"curve of first compound, second compound 3 µM",284 nM
same,"viability, T/C","second compound 0.00949 µM, first compound 0.00316 µM",87.6%
same,"viability, T/C","second compound 0.00949 µM, first compound 0.01 µM",96.3%
same,"viability, T/C","second compound 0.00949 µM, first compound 0.0316 µM",101%
same,"viability, T/C","second compound 0.00949 µM, first compound 0.1 µM",85.2%
same,"viability, T/C","second compound 0.00949 µM, first compound 0.316 µM",50.2%
same,"viability, T/C","second compound 0.00949 µM, first compound 1 µM",30.3%
same,"viability, T/C","second compound 0.03 µM, first compound 0.00316 µM",91.7%
same,"viability, T/C","second compound 0.03 µM, first compound 0.01 µM",91.1%
same,"viability, T/C","second compound 0.03 µM, first compound 0.0316 µM",97.2%
same,"viability, T/C","second compound 0.03 µM, first compound 0.1 µM",76.7%
same,"viability, T/C","second compound 0.03 µM, first compound 0.316 µM",56%
same,"viability, T/C","second compound 0.03 µM, first compound 1 µM",35.8%
same,"viability, T/C","second compound 0.0949 µM, first compound 0.00316 µM",94.9%
same,"viability, T/C","second compound 0.0949 µM, first compound 0.01 µM",101%
same,"viability, T/C","second compound 0.0949 µM, first compound 0.0316 µM",92.5%
same,"viability, T/C","second compound 0.0949 µM, first compound 0.1 µM",70.5%
same,"viability, T/C","second compound 0.0949 µM, first compound 0.316 µM",47.9%
same,"viability, T/C","second compound 0.0949 µM, first compound 1 µM",31.2%
same,"viability, T/C","second compound 0.3 µM, first compound 0.00316 µM",110%
same,"viability, T/C","second compound 0.3 µM, first compound 0.01 µM",106%
same,"viability, T/C","second compound 0.3 µM, first compound 0.0316 µM",95.2%
same,"viability, T/C","second compound 0.3 µM, first compound 0.1 µM",77.1%
same,"viability, T/C","second compound 0.3 µM, first compound 0.316 µM",47.5%
same,"viability, T/C","second compound 0.3 µM, first compound 1 µM",35.8%
same,"viability, T/C","second compound 0.949 µM, first compound 0.00316 µM",108%
same,"viability, T/C","second compound 0.949 µM, first compound 0.01 µM",96.7%
same,"viability, T/C","second compound 0.949 µM, first compound 0.0316 µM",95.6%
same,"viability, T/C","second compound 0.949 µM, first compound 0.1 µM",75.3%
same,"viability, T/C","second compound 0.949 µM, first compound 0.316 µM",45.9%
same,"viability, T/C","second compound 0.949 µM, first compound 1 µM",34.5%
same,"viability, T/C","second compound 3 µM, first compound 0.00316 µM",118%
same,"viability, T/C","second compound 3 µM, first compound 0.01 µM",109%
same,"viability, T/C","second compound 3 µM, first compound 0.0316 µM",92%
same,"viability, T/C","second compound 3 µM, first compound 0.1 µM",79.3%
same,"viability, T/C","second compound 3 µM, first compound 0.316 µM",42.2%
same,"viability, T/C","second compound 3 µM, first compound 1 µM",32.5%
Cc1nc(N2CCC3(CC2)COC(C)C3N)c(CO)nc1Sc1ccnc(N)c1Cl (stereo not drawn),"viability, T/C",compound 0.00949 µM,101% and 93.1% and 109%
same,"viability, T/C",compound 0.03 µM,83.2% and 88.3% and 85.1%
same,"viability, T/C",compound 0.0949 µM,102% and 90.2% and 91%
same,"viability, T/C",compound 0.3 µM,82.2% and 84.3% and 94.8%
same,"viability, T/C",compound 0.949 µM,91.4% and 83.7% and 86.9%
same,"viability, T/C",compound 3 µM,87.5% and 86% and 99.3%
same,IC50,curve of compound,> 3000 nM
C=C(F)C(=O)N1CCN(c2nc(OCC3CCCN3C)nc3c2CCN(c2cccc4cccc(Cl)c24)C3)CC1CC#N (stereo not drawn),"viability, T/C",compound 0.0316 µM,108% and 97% and 96.2%
same,"viability, T/C",compound 0.1 µM,105% and 86% and 95%
same,"viability, T/C",compound 0.316 µM,94.3% and 104% and 98%
same,"viability, T/C",compound 1 µM,101% and 96.9% and 96.6%
same,"viability, T/C",compound 3.16 µM,97.6% and 102% and 90.8%
same,"viability, T/C",compound 10 µM,29.9% and 33.2% and 31.5%
same,IC50,curve of compound,7100 nM and 7400 nM and 6980 nM
CCN1CCN(Cc2ccc(Nc3ncc(F)c(-c4cc(F)c5nc(C)n(C(C)C)c5c4)n3)nc2)CC1 + Cc1c(S(C)(=O)=O)c(-c2cc(F)cc(N3CCN(c4ccc(NS(=O)(=O)c5ccc(NC(CCN6CCC(C(=O)OCCCP(=O)(O)O)CC6)CSc6ccccc6)c(S(=O)(=O)C(F)(F)F)c5)cc4)CC3)c2)c(-c2ccc(Cl)cc2)n1C(C)C,IC50,"curve of first compound, second compound 0.0316 µM",> 1000 nM
same,IC50,"curve of first compound, second compound 0.1 µM",> 1000 nM
same,IC50,"curve of first compound, second compound 0.316 µM",> 1000 nM
same,IC50,"curve of first compound, second compound 1 µM",> 1000 nM
same,IC50,"curve of first compound, second compound 3.16 µM",> 1000 nM
same,IC50,"curve of first compound, second compound 10 µM",> 1000 nM
same,"viability, T/C","second compound 0.0316 µM, first compound 0.00316 µM",93.5%
same,"viability, T/C","second compound 0.0316 µM, first compound 0.01 µM",108%
same,"viability, T/C","second compound 0.0316 µM, first compound 0.0316 µM",102%
same,"viability, T/C","second compound 0.0316 µM, first compound 0.1 µM",121%
same,"viability, T/C","second compound 0.0316 µM, first compound 0.316 µM",124%
same,"viability, T/C","second compound 0.0316 µM, first compound 1 µM",129%
same,"viability, T/C","second compound 0.1 µM, first compound 0.00316 µM",96%
same,"viability, T/C","second compound 0.1 µM, first compound 0.01 µM",100%
same,"viability, T/C","second compound 0.1 µM, first compound 0.0316 µM",99.5%
same,"viability, T/C","second compound 0.1 µM, first compound 0.1 µM",115%
same,"viability, T/C","second compound 0.1 µM, first compound 0.316 µM",121%
same,"viability, T/C","second compound 0.1 µM, first compound 1 µM",137%
same,"viability, T/C","second compound 0.316 µM, first compound 0.00316 µM",105%
same,"viability, T/C","second compound 0.316 µM, first compound 0.01 µM",116%
same,"viability, T/C","second compound 0.316 µM, first compound 0.0316 µM",108%
same,"viability, T/C","second compound 0.316 µM, first compound 0.1 µM",103%
same,"viability, T/C","second compound 0.316 µM, first compound 0.316 µM",123%
same,"viability, T/C","second compound 0.316 µM, first compound 1 µM",127%
same,"viability, T/C","second compound 1 µM, first compound 0.00316 µM",104%
same,"viability, T/C","second compound 1 µM, first compound 0.01 µM",101%
same,"viability, T/C","second compound 1 µM, first compound 0.0316 µM",115%
same,"viability, T/C","second compound 1 µM, first compound 0.1 µM",126%
same,"viability, T/C","second compound 1 µM, first compound 0.316 µM",115%
same,"viability, T/C","second compound 1 µM, first compound 1 µM",125%
same,"viability, T/C","second compound 3.16 µM, first compound 0.00316 µM",110%
same,"viability, T/C","second compound 3.16 µM, first compound 0.01 µM",104%
same,"viability, T/C","second compound 3.16 µM, first compound 0.0316 µM",102%
same,"viability, T/C","second compound 3.16 µM, first compound 0.1 µM",120%
same,"viability, T/C","second compound 3.16 µM, first compound 0.316 µM",123%
same,"viability, T/C","second compound 3.16 µM, first compound 1 µM",125%
same,"viability, T/C","second compound 10 µM, first compound 0.00316 µM",171%
same,"viability, T/C","second compound 10 µM, first compound 0.01 µM",188%
same,"viability, T/C","second compound 10 µM, first compound 0.0316 µM",174%
same,"viability, T/C","second compound 10 µM, first compound 0.1 µM",175%
same,"viability, T/C","second compound 10 µM, first compound 0.316 µM",168%
same,"viability, T/C","second compound 10 µM, first compound 1 µM",140%
